The source of these data is US6602516B1, “Antibiotic/medicated gutta percha point” (priority 2000, dated 2003).

SMILES strings stand for the structures.

One data set concerns Actinomyces. Nature of the data set: Naval Dental School antibacterial study of iodoform/gutta percha (FIG. 1). Format: cell-based. An excerpt: (§1) However, it is not as effective against an oral salivary leakage contamination as determined by the previous leakage and bacterial investigations.
(§2) FIG. 1 is a table illustrating the results from a study at Naval Dental School, Bethesda, Md., the iodoform/gutta percha disclosed in U.S. Pat. No. 5,648,403, issued Jul. 15, 1997.

The subject of a further data set is Escherchi coli. Described as above. The following applies: tested aerobe. Format: cell-based.
From the text: as §1, §2

Another data set concerns Staphylococcus aureus. The description is as above. Format: cell-based. The following applies: tested aerobe.
From the text: as §1, §2

The test system of another data set is Streptococcus sanguis. The description is as above. Format: cell-based. The following applies: tested aerobe.
From the text: as §1, §2

The next data set has as its system Enterococci faecium. The data set is described as above. Format: cell-based. The following applies: facultative anaerobe.
From the text: as §1, §2

The next data set concerns Streptococcus mutans. The data set is described as above. Format: cell-based. The following applies: tested aerobe.
From the text: as §1, §2

In another data set the test system is Lactobacillus. The data set is described as above. Format: cell-based.
From the text: as §1, §2

The next data set concerns Prevotella intermedius. Described as above. Format: cell-based.
From the text: as §1, §2

The subject of the next data set is patients. The following applies: more than 1,000 patients; cited from earlier work.

Regarding `IC(I)I` [Iodoform, Triiodomethane (Iodoform)], in the data set on Actinomyces, the “effectiveness against Actinomyces” value is “ineffective”. The “effectiveness against Escherchi coli” value with Escherchi coli is given as “ineffective”. Moreover, the “effectiveness against Staphylococcus aureus” value in the data set on Staphylococcus aureus is listed as “ineffective”. In the data set on Streptococcus sanguis, the “effectiveness against Streptococcus sanguis” value is given as “ineffective”. The “effectiveness against Enterococci faecium” value in the data set on Enterococci faecium was “ineffective”. Besides, the “effectiveness against Streptococcus mutans” value in the data set with Streptococcus mutans is given as “ineffective”. Also, in the data set on Lactobacillus, the “effectiveness against Lactobacillus” value is reported as “ineffective”. Further, in the data set on Prevotella intermedius, the “effectiveness against Prevotella intermedius” value was “ineffective”.
As to `CN(C)[C@@H]1C(O)=C(C(N)=O)C(=O)[C@@]2(O)C(O)=C3C(=O)c4c(O)cccc4[C@@](C)(O)[C@H]3C[C@@H]12` [tetracycline], the allergic reactions result in the data set with patients was “no allergic reactions”.
